Laboratory results taken from patent publication US11103698B2, “Using alternating electric fields to increase cell membrane permeability” (The Board of Trustees of the Leland Stanford Junior …, priority 2018, dated 2021).

How the values were obtained:
human glioblastoma cells = assay: Growth inhibition by TTFields in conjunction with compound; type: cell-based
Excerpt: In this figure, 5-ALA=5-aminolevulinic acid; Ethidium D=ethidium bromide; and FITC=fluorescein isothiocyanate.

U87-MG/eGFP-fLuc cells [1] = assay: Annexin-V-APC binding (apoptosis positive control), fluorescence microscopy; type: cell-based, human; conditions: 21 μM, positive control for apoptosis, TTFields-unexposed
Method: To test if the imposition of TTFields affects cell membrane properties, and thus membrane permeability, the effect of TTFields on the behavior of fluorescently tagged reagents that bind to the cellular membrane was determined. Initially, the impact of TTFields on the binding of Annexin-V-APC to the membrane of U87-MG/eGFP-fLuc cells was measured. Annexin-V-APC binding is a signature of early apoptosis which is characterized by ruffling of the membrane.

GBM39 cells (GBM39/Luc) = assay: Sensitivity to drug and synergy with TTFields; type: cell-based, human; conditions: for synergy of combination with TTFields: GBM39/Luc; for sensitivity of cells to various concentrations of drug: TTFields for 3 days vs no TTFields
U87-MG/GFP-Luc cells = assay: Sensitivity to drug and synergy with TTFields; type: cell-based, human
[2] = tested on: MDA-MB-435 human melanoma cell line cells; assay: 7-AAD accumulation by flow cytometry under alternating electric fields; type: cell-based; conditions: 150 kHz, 1.62 V/cm, 24 h
Method: After this 15 minute period, alternating electric field application was terminated and the cells were incubated at room temperature for an additional 15 minutes.
After this 24 hour period, the alternating electric fields were turned off for 15 minutes, after which the 7-AAD was added. After waiting an additional 15 minutes, the percentage of cells with increased accumulation of the fluorescent 7-AAD was determined using flow cytometry.

U87-MG cells [3] = assay: as above; type: cell-based, human; conditions: 300 kHz, 1.62 V/cm RMS, 24 h; 7-AAD introduced 15 minutes prior to cessation of the field (other timings after cessation: no significant increase)
Method: FIG. 7D depicts the results of an experiment to test how quickly the permeability drops back down after cessation of the alternating electric fields. More specifically, 7-Aminoactinomycin D (7-AAD) is a fluorescent chemical compound with a strong affinity for DNA. […] 7-AAD was introduced into samples at five different times: 15 minutes prior to the cessation of the alternating electric field; immediately after cessation of the alternating electric field; and 15, 30, and 60 minutes after cessation of the alternating electric field. In each case, the cells were incubated with 7-AAD for 30 minutes after introduction of the 7-AAD, followed by flow cytometry analysis of the percentage of cells with increased accumulation of the fluorescent 7-AAD for each of the different timings.
After this 15 minute period, alternating electric field application was terminated and the cells were incubated at room temperature for an additional 15 minutes, followed by flow cytometry analysis of the percentage of cells with increased accumulation of the fluorescent 7-AAD for each of the different frequencies.

[4] = target: T1, purified firefly luciferase (Photinus pyralis, UniProt P08659); assay: Activity of purified firefly luciferase exposed to TTFields; type: biochemical; conditions: 200 kHz TTFields, 60 minutes after initiation
T1 construct: purchased Sigma Aldrich Inc (St. Louis, Mo.) SRE0045-2 MG
T1 sequence (P08659 whole entry): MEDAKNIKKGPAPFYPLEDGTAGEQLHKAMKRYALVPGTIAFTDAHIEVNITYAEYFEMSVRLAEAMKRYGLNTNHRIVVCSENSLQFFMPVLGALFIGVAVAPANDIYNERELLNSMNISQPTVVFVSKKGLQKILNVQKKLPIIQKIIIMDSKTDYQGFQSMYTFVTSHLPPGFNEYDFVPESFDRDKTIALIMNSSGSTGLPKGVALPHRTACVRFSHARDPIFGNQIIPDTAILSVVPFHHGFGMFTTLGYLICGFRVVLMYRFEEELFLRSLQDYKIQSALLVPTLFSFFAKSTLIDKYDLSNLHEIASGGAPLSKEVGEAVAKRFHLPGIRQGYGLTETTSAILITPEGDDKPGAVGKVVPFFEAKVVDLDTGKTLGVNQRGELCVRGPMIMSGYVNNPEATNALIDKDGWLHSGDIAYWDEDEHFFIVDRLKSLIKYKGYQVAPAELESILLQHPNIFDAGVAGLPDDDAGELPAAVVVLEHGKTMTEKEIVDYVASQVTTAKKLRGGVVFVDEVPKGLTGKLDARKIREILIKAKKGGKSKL

[5] = tested on: KR158B murine astrocytoma cell line; assay: Bioluminescence imaging of Renilla luciferase-expressing astrocytoma cells under TTFields (coelenterazine substrate); type: cell-based; conditions: TTFields exposure vs no TTFields
Excerpt: Renilla luciferase activity is not dependent upon ATP and magnesium (as opposed to firefly luciferase). Thus, it is believed that the induction of bioluminescence by TTFields was not due to alterations in endogenous pools of ATP.

U87-MG/eGFP-fLuc cells [6] = tested on: U87-MG/eGFP-fLuc cells
Method: U87-MG/eGFP-fLuc cells were seeded on Thermanox glass coverslips, allowed to settle and grow, and then subjected to either TTFields or no TTFields.
To assess the reversibility of the effect of TTFields on cancer cells, U87-MG/eGFP-fLuc cells were subjected to three conditions: (1) No TTFields exposure, standard cell culture conditions (37° C., 95% 02, 5% CO2), (2) TTFields exposure for 24 h and (3) TTFields exposure for 24 h followed by no TTFields exposure for 24 h. The readouts of BLI, PpIX fluorescence (5-ALA product) and Dextran-FITC (4 kDa) fluorescence were acquired. All experimental conditions were done in triplicate.
Briefly, cells in culture were trypsinized via standard protocols and 10,000-50,000 single cells were suspended in 200 or 75 μL of DMEM/10% FBS/1×antibiotic-antimycotic and then were seeded onto the center of a 22 mm or 12 mm diameter glass Thermanox™ coverslips respectively (ThermoFisher Scientific, Waltham, Mass., USA). The cells were incubated overnight in a humidified 95% air/5% CO2 incubator set at 37° C. Once the cells became attached to the coverslip, 2 mL or 1 mL of DMEM/10% FBS/lx antibiotic-antimycotic was added per well of 6-well or 12-well plates, respectively. […]

[7] = tested on: U87-MG GBM on PCS-201 fibroblast co-cultures; assay: 5-ALA uptake (PpIX fluorescence) in glioblastoma-fibroblast co-culture under TTFields; type: cell-based, human
U87-MG cells [8] = assay: 5-ALA uptake (PpIX fluorescence) under TTFields, single culture; type: cell-based, human
Method: Experiments were performed to determine the effects of TTFields on uptake of 5-ALA (as measured by PpIX accumulation and its resultant fluorescence) in glioblastoma cells. Because it is difficult to distinguish the margin between tumor and normal cells using the present 5-ALA bioassay, the measurement of PpIX fluorescence was used to address this issue. Investigations were run to determine whether permeation of 5-ALA through the cellular membrane and into the glioblastoma cells could be increased with TTFields exposure. U87-MG cells were exposed or unexposed to TTFields, each for durations of 6-24 h.
All monovariant statistical comparisons between no TTFields vs. TTFields samples done by Student's t-test for n=3 experiments per time point.

[9] = tested on: MCF-7 human breast adenocarcinoma cells, wild type; assay: Intracellular accumulation of mitoxantrone under alternating electric fields; type: cell-based; conditions: 150 kHz, 1.62 V/cm, 23 h, then mitoxantrone 2 μM for 1 h with field; vs no field
Method: (§1) The intracellular accumulation of mitoxantrone was then measured.

[10] = tested on: MCF-7 cells, mitoxantrone resistant; assay: as above; type: cell-based, human; conditions: 150 kHz, 1.62 V/cm, 23 h, then mitoxantrone 2 μM for 1 h with field; vs no field
Method: as §1

MES-SA cells = assay: Intracellular accumulation of doxorubicin under 150 kHz alternating electric fields; type: cell-based; conditions: 1.62 V/cm RMS, 24 h, doxorubicin 10 μM for last hour, vs untreated with field
MDA-MB-235 cells = assay: Sensitivity to drug and synergy with TTFields; type: cell-based
[11] = tested on: MDA-MB-435 cells, doxorubicin resistant; assay: Intracellular accumulation of doxorubicin under alternating electric fields; type: cell-based, human; conditions: 150 kHz, 1.62 V/cm, 23 h, then doxorubicin 10 μM for 1 h with field; vs no field
[12] = tested on: MDA-MB-435 cells, wild type; assay: as above; type: cell-based, human; conditions: 150 kHz, 1.62 V/cm, 23 h, then doxorubicin 10 μM for 1 h with field; vs no field
[13] = TTFields for 3 days vs no TTFields

CC1=C(CO)C(=O)O[C@@H]([C@@H](C)[C@H]2CC[C@H]3[C@@H]4C[C@H]5O[C@]56[C@@H](O)C=CC(=O)[C@]6(C)[C@H]4CC[C@]23C)C1 [Withaferin A]
growth inhibition in conjunction with TTFields (human glioblastoma cells): synergistically inhibited
Annexin-V-APC binding to cells (early apoptosis) (U87-MG/eGFP-fLuc cells [1]): could be visualized
synergy of combination with TTFields (GBM39 cells (GBM39/Luc)): synergy was found
synergy of combination with TTFields (U87-MG/GFP-Luc cells): synergy was found
synergy of combination with TTFields (pcGBM2/GFP-Luc cells): synergy was found

Cc1c2oc3c(C)c(N)cc(C(=O)N[C@@H]4C(=O)N[C@H](C(C)C)C(=O)N5CCC[C@H]5C(=O)N(C)CC(=O)N(C)[C@@H](C(C)C)C(=O)O[C@@H]4C)c3nc-2c(C(=O)N[C@@H]2C(=O)N[C@H](C(C)C)C(=O)N3CCC[C@H]3C(=O)N(C)CC(=O)N(C)[C@@H](C(C)C)C(=O)O[C@@H]2C)c(N)c1=O [7-AAD, 7-Aminoactinomycin D]
percentage of cells with increased accumulation of 7-AAD ([2]; 7-AAD added for last 15 min while field continued): ~66%
percentage of cells with increased accumulation of 7-AAD ([2]; fields turned off for 15 minutes before 7-AAD was added): ~20%
accumulation of 7-AAD (percentage of cells with increased accumulation) (U87-MG cells [3]): significant increase

firefly luciferase: purified firefly luciferase enzyme (Sigma Aldrich SRE0045-2 MG)
loss in enzymatic activity [4]: > 1000 fold

CCc1c2c(nc3ccc(OC(=O)N4CCC(N5CCCCC5)CC4)cc13)-c1cc3c(c(=O)n1C2)COC(=O)[C@]3(O)CC [Irinotecan]
synergy of combination with TTFields (GBM39 cells (GBM39/Luc)): synergy was found
sensitivity of cells to various concentrations of drug (GBM39 cells (GBM39/Luc); GBM39/Luc cells): improves the sensitivity

Oc1ccc(Cc2nc3c(Cc4ccccc4)nc(-c4ccc(O)cc4)cn3c2O)cc1 [coelenterazine]
permeation of the luciferase substrate through the plasma membrane (bioluminescence) [5]: increased permeation

O=C(O)[C@H]1CSC(c2nc3ccc(O)cc3s2)=N1 [D-luciferin]
permeation of the luciferase substrate through the plasma membrane (bioluminescence) (U87-MG/eGFP-fLuc cells [6]; TTFields exposure vs no TTFields): increased permeation
uptake (BLI flux), reversibility (U87-MG/eGFP-fLuc cells [6]; no TTFields vs TTFields 24 h vs TTFields 24 h followed by no TTFields 24 h, FIG. 7A): reversibly increase uptake

NCC(=O)CCC(=O)O [5-ALA, 5-aminolevulinic acid]
ratio of PpIX fluorescence intensity in U87-MG cells over surrounding PCS-201 fibroblast cells ([7]; 24 h TTFields vs no TTFields, p=0.043): significantly increased
rate of PpIX fluorescence intensity increase ([7]; TTFields-exposed vs unexposed co-cultures, 2, 6, 24 h, p<0.001): significantly augmented
uptake of 5-ALA (PpIX fluorescence) (U87-MG cells [8]; 6 h TTFields vs no TTFields, p=0.047): significantly increased uptake
uptake of 5-ALA (PpIX fluorescence) (U87-MG cells [8]; 24 h TTFields vs no TTFields, p=0.011): increase was maintained
uptake (PpIX fluorescence), reversibility (U87-MG cells [8]; no TTFields vs TTFields 24 h vs TTFields 24 h followed by no TTFields 24 h, FIG. 7B): reversibly increase uptake

O=NN(CCCl)C(=O)NC1CCCCC1 [Lomustine]
sensitivity of cells to various concentrations of drug (GBM39 cells (GBM39/Luc); GBM39 cells): improves the sensitivity
sensitivity of cells to various concentrations of drug (U87-MG/GFP-Luc cells; [13]): improves the sensitivity
sensitivity of cells to various concentrations of drug (pcGBM2/GFP-Luc cells; [13]): improves the sensitivity

O=C1c2c(O)ccc(O)c2C(=O)c2c(NCCNCCO)ccc(NCCNCCO)c21 [mitoxantrone]
intracellular accumulation of mitoxantrone [9]: increased
intracellular accumulation of mitoxantrone [10]: increased

COc1cccc2c1C(=O)c1c(O)c3c(c(O)c1C2=O)C[C@@](O)(C(=O)CO)C[C@@H]3O[C@H]1C[C@H](N)[C@H](O)[C@H](C)O1 [doxorubicin]
increase in intracellular accumulation of doxorubicin (MES-SA cells): more than 2 ×
synergy of combination with TTFields (MDA-MB-235 cells): Evidence of synergy
sensitivity of cells to various concentrations of drug (MDA-MB-235 cells; [13]): improves the sensitivity
intracellular accumulation of doxorubicin [11]: increased
intracellular accumulation of doxorubicin [12]: increased
